The source of these data is patent US6900238B1, “HIV protease inhibitors” (The Scripps Research Institute, priority 1995, dated 2005).

Series [1] can be described thus: 13C NMR study of hydration of the ketone moiety in the presence of water. In kind it is physicochemical. To be noted: deuterated DMSO/D2O (5:1), incubation for 24 hours. The text has this: The ketone moiety of the α-keto amide 2 is disclosed to be hydrated and is hydrogen bonding in a similar manner to that of compound 23.
Series [2] deals with T1, HIV-1 protease (Human immunodeficiency virus type 1 group M subtype B, UniProt P03369).
T1 construct: HIV PR is a 99 amino acid aspartyl protease which functions as a homodimer; made in house; host or cells: no host: total chemical synthesis
The experiment in a line: HIV protease inhibition, fluorogenic peptide substrate cleavage (IC50 and Ki). It is filed as biochemical. To be noted: for IC50: read-out: HIV PR IC50; for Ki: read-out: HIV PR Ki. Here is the method: The solution was mixed and incubated over 5 minutes during which time the rate of substrate cleavage was monitored by continuously recording the change in fluorescence of the assay solution. An excitation filter of 325 nm, and an emission filter of 420 nm were used.
Determination of Ki for HIV protease was performed similarly with the following modifications. The substrate concentrations used were 57, 43, 28 and 14 μM. All other concentrations were as above. The curve fit for the data was determined and the subsequent Ki derived using a computer program based on the equation of Morrison et. al. BioChim. Biophys. ACTA 1969, 185, 269, for tight binding inhibitors.
The synthetic HIV-protease containing a thioester linkage available from CalBiochem (San Diego) can also be used. The enzyme activity was assayed with the fluorogenic substrate Ac-Thr-Ile-Nle-Phe(P—NO2)-Gln-Arg-NH2 (from CalBiochem, San Diego) according to the procedure described in the literature. Inhibition analysis was performed in the presence of the inhibitor and expressed with IC50 (the concentration of inhibitor that causes 50% inhibition of the enzyme activity).

A further series deals with T2, FIV protease (Feline immunodeficiency virus, UniProt P16088).
T2 construct: an 18.6 kDa precursor, which auto-processed to a 13.2 kDa FIV PR plus N- and C-terminal fragments; made in house; host or cells: E. coli BL21.DE3, lys S (pT7-7 vector)
The series can be described thus: FIV protease inhibition, peptide substrate cleavage by HPLC (IC50 and Ki). In kind it is biochemical. The protocol: For determination of K1 and IC50 for FIV protease, 0.125 μg of the enzyme was added to a solution (100 μL final volume) containing inhibitor, 560 μM peptide substrate (sequence Gly-Lys-Glu-Glu-Gly-Pro-Pro-Gln-Ala-Tyr-Pro-Ile-Gln-Thr-Val-Asn-Gly) and 2% dimethyl sulfoxide in a 1:3 mixture of assay buffer (as above) and 4M NaClaq. solution. The solution was mixed and incubated for 10 minutes at 37° C. and the reaction quenched by addition of 8 M guanidine HCl solution containing 0.2 M sodium acetate at pH 4.2 (100 μL). The cleavage products and substrate were separated by reverse phase HPLC. Absorbance was measured at 215 nm, peak areas were determined and percent conversion to product was calculated using relative peak areas. The data were plotted as 1/V (V=rate substrate is cleaved in nmol/min) against inhibitor concentration and the—Ki determined as the point at which the resulting line intersects with 1/Vmax (Vmax=6.85 nmol/min). IC50 was determined as the inhibitor concentration at 50% inhibition. Vmax (6.85±0.7 nmol min^−1) and Km (707±70 μM) for FIV protease were determined from a plot of 1/V (V=rate in nmol/min) against 1/[S] ([S]=substrate concentration in […]). The data used was generated similarly to that for Ki with the following modifications. The substrate concentrations used were 560, 448, 336, 224, 111 and 56 μM, in the absence of inhibitor.
Purification of FIV protease: A 503 base pair Eco Rl-Bam Hl fragment containing the coding sequence of FIV protease was cloned from FIV-34TF10 (Talbott et. al. Proc. Natl. Acad. Sci. USA 86 1989, 5743) into the pT7-7 vector (Tabor et. al. Proc. Natl. Acad. Sci USA 82 1985, 1074). The 5′ end of the insert was modified by the addition of an Ndel adaptor, which provided the proper reading frame with initiation of translation from the methionine encoded in the latter site. […] The construct was transformed into E. coli strain BL21.DE3, lys S (Studier et. al. Meth. Enzymol. 1990, 185, 60) and overnight cultures were used to inoculate 15 liter fermentations, performed using Circlegrow medium (Bio 101) plus […] ampicillin, 20 μM chloramphenicol, at 37° C. The cells were allowed to reach mid-log phase, then the temperature was reduced to 24° C. and IPTG (isopropylB-thiogalactopyranoside) was added to a final concentration of 1 mM. The fermentation was allowed to proceed for 16 hours, at which time the cells were harvested by centrifugation and frozen at −70° C. in 100 g aliquots for future use.
Cells (100 g) were lysed by addition of 600 mL, 50 mM Tris-HCl, pH 8, 5 mM EDTA and 2 mM 2-mercaptoethanol to the frozen pellet. The cells lysed upon thawing and the viscous mixture was homogenized at 4° C. for 2 min in a Waring blender. The sample was centrifuged at 8,000×g for 20 min and the pellet discarded. […]

Series [3] deals with T1, HIV-1 protease. To be noted: known HIV PR inhibitor; cited from earlier work.

Like-named read-outs stand apart in the source and are kept apart here. Peptide text beside a SMILES is read from it. * marks the point of attachment. Cbz = O=C(OCc1ccccc1)*; NHtBu = CC(C)(C)N*

Take `CC(C)(C)NC(=O)[C@@H]1CCCN1C(=O)C(=O)C(Cc1ccccc1)NC(=O)OCc1ccccc1` (mixture of isomers) [Compound 2, (3S) and (3R) 3-(N-Benzyloxycarbonyl)amino-2-keto-4-phenylbutyryl-L-prolyl-tert-butyl Amide]: in series [1], the “hydration of the ketone moiety in the presence of water” value is reported as “remains unhydrated”. In addition, at HIV-1 protease [2], the “fold better than the corresponding hydroxyethylamine isosteric structure as inhibitor of the HIV protease” value is on record as “approximately 300 fold”, the “fold better than the corresponding phosphinic acid derivative as inhibitor of the HIV protease” value is given as roughly 1300 fold, the IC50 was 0.7 µM and the Ki amounted to 0.214 µM. Further, at HIV-1 protease [2] (time dependent assays), the “time dependent inhibition of HIV PR” value is recorded as “do not exhibit time dependent inhibition”. The “inhibitory effect against FIV PR” value on FIV protease (added in concentrations up to 70 mM) is “no inhibitory effect”.

Turning to `CC[C@H](C)[C@H](NC(=O)[C@@H]1CCCN1C(=O)C(=O)C(Cc1ccccc1)NC(=O)OCc1ccccc1)C(=O)N[C@@H](CCC(N)=O)C(=O)OC(C)(C)C` (mixture of isomers) [Compound 4], the Ki came to 0.154 µM at HIV-1 protease [2] and 29 µM at FIV protease (read-out: FIV PR Ki). The IC50 at FIV protease (read-out: FIV PR IC50) was 25 µM.

Turning to `COC[C@@H]1[C@@H](OC)[C@H](OC)[C@H](COC)N1C(=O)C(=O)C(Cc1ccccc1)NC(=O)OCc1ccccc1` (mixture of isomers) [Compound 12, (3S) and (3R) 3-(N-Benzyloxycarbonyl)amino-2-keto-4-phenylbutyryl-(2′(R), 5′(R)-bis(methoxymethyl]-3′(R), 4′(S)-dimethoxypyrrolidine]], on HIV-1 protease [2], the IC50 was found to be 20 µM and the inhibitory constant (Ki) is 20 µM.

As for `CC(C)(C)NC(=O)C1CCCN1C(=O)C(Cc1ccccc1)NC(=O)OCc1ccccc1` (stereo not drawn) [Cbz-Phe-Pro-NBu^t] (Cbz-Phe-Pro-NHtBu; configuration not given here), the “cleavage by HIV protease” value at HIV-1 protease [2] (normal assay conditions) is recorded as “not cleaved”. Further, on FIV protease (normal assay conditions), the “cleavage by FIV protease” value was “not cleaved”. Consider `COC(=O)[C@@H]1CCCN1C(=O)C(=O)C(Cc1ccccc1)NC(=O)OC(C)(C)C` (stereo partly shown) [Compound 1], for which, at HIV-1 protease [2], the IC50 is 6 µM and the Ki stood at 6 µM. For `COCC1CCC(COC)N1CC(O)C(Cc1ccccc1)NC(=O)OCc1ccccc1` [Compound 5, N-[1-Phenyl-2(S)-[(benzyloxycarbonyl)amino]-3(R)-hydroxybutan-4-[2′ (R), 5′ (R)-bis(methoxymethyl)]-pyrrolidine], at HIV-1 protease [2], the IC50 came out at 1800 µM. In the case of `COCC1C(OC)C(OC)C(COC)N1CC(O)C(Cc1ccccc1)NC(=O)OCc1ccccc1` [Compound 6, N-[1-Phenyl-2(S)-[(benzyloxycarbonyl)amino]-3(R)-hydroxybutan-4-[2′(R), 5′(R)-bis(methoxymethyl)-3′(R), 4′(S)-dimethoxy]-pyrrolidine], the IC50 at HIV-1 protease [2] was determined as 100 µM.

With `COC[C@H]1CCCN1C[C@@H](O)[C@H](Cc1ccccc1)NC(=O)OCc1ccccc1` [Compound 7], the IC50 on HIV-1 protease [2] stood at 1600 µM. On to `CC(C)(C)NC(=O)[C@@H]1CCCN1C[C@@H](O)[C@H](Cc1ccccc1)NC(=O)OCc1ccccc1` [Compound 8], for which the IC50 on HIV-1 protease [2] amounted to 60 µM. On the same count and under the same terms, under `CO[C@H]1CC(C(=O)NC(C)(C)C)N(C[C@@H](O)[C@H](Cc2ccccc2)NC(=O)OCc2ccccc2)C1` (stereo partly drawn) [Compound 9, N-(1-Phenyl-2(S)-[(benzyloxycarbonyl)amino]-3(R)-hydroxybutan-4-(tert-butylamido)-4′(S)-methoxy]-pyrrolidine] stands 17 µM; under `CO[C@@H]1C[C@@H](C(=O)NC(C)(C)C)N(C[C@@H](O)[C@H](Cc2ccccc2)NC(=O)OCc2ccccc2)C1` [Compound 10], 2.9 µM; under `CC(C)(C)NC(=O)[C@@H]1C[C@@H](OCc2ccccc2)CN1C[C@@H](O)[C@H](Cc1ccccc1)NC(=O)OCc1ccccc1` [Compound 11], 3.9 µM. With `CC(C)(C)NC(=O)[C@@H]1CCCN1C(=O)[C@H](O)[C@H](Cc1ccccc1)NC(=O)OCc1ccccc1` [Compound 23, (2S, 3R) and (2S, 3S) 3-(N-Benzyloxycarbonyl)amino-2-hydroxy-4-phenylbutyryl-L-prolyl-tert-butyl Amide], on HIV-1 protease [2], the IC50 was determined as 300 µM. As for `O=C1N(Cc2ccc(CO)cc2)[C@H](Cc2ccccc2)[C@H](O)[C@@H](O)[C@@H](Cc2ccccc2)N1Cc1ccc(CO)cc1` [DMP 323], at HIV-1 protease [3], the IC50 was 0.036 µM and the Ki was 0.00027 µM. For `CSC[C@H](NC(=O)COc1cccc2cnccc12)C(=O)N[C@@H](Cc1ccccc1)[C@H](O)C(=O)N1CSC[C@H]1C(=O)NC(C)(C)C` [KNI-272, reference compound], the “Ki against HIV PR relative to compound 2” value at HIV-1 protease [2] (compared with 2) is given as “almost five orders of magnitude lower”. As to “(2S, 3R) and (2S, 3S) 3-(N-Benzyloxycarbonyl)amino-2-hydroxy-4-phenylbutyryl-L-prolyl-tert-butyl Amide [Compound 24]”, the IC50 on HIV-1 protease [2] came to 2 µM.

What is called IC50 is the concentration that inhibits the measured activity by half. What is called Ki is a dissociation constant, usually derived from enzyme kinetics or from competition with a known ligand.
